The results in this text go back to patent US12522601B2, “1,3,4-oxadiazole derivative compounds as histone deacetylase 6 inhibitor, and the pharmaceutical composition comprising the same” (CHONG KUN DANG PHARMACEUTICAL CORP., priority 2020, dated 2026).

Bounds are passed on as bounds.

The target in experiment [1] is T1, human recombinant HDAC6 (Homo sapiens, UniProt Q9UBN7).
T1 construct: purchased Calbiochem Inc. 382180
T1 sequence (Q9UBN7 1-1215): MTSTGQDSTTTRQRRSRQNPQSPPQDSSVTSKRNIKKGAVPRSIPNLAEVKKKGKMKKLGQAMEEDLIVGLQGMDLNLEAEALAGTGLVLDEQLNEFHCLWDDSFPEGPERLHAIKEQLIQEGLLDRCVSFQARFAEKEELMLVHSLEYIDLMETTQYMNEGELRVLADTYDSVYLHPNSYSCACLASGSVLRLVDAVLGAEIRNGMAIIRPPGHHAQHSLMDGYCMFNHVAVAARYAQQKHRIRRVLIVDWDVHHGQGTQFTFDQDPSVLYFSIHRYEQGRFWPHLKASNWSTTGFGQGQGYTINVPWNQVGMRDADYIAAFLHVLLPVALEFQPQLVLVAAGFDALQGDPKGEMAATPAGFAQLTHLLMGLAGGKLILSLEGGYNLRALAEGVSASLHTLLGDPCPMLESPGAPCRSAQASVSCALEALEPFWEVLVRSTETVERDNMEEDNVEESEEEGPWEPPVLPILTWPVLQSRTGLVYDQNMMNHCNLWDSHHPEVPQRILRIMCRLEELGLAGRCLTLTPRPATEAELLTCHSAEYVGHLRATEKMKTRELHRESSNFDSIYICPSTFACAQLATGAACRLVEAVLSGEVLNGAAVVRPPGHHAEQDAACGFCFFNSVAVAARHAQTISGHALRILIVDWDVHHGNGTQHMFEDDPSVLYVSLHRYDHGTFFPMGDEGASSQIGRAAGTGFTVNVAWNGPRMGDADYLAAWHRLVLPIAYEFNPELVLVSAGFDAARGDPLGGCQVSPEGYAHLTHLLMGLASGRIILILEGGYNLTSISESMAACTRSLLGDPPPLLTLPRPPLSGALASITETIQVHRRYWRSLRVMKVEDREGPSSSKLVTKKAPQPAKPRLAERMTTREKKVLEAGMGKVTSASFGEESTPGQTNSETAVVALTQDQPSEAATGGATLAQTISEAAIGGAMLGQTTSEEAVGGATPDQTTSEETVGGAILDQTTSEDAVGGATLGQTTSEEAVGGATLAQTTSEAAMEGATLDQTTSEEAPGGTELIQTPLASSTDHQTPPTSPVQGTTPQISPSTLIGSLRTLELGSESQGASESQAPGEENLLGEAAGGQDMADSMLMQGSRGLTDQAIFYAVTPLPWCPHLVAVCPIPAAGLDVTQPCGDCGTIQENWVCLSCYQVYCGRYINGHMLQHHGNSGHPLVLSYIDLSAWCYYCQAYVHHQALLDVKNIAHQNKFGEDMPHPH
Description: In vitro HDAC enzyme activity inhibition assay, HDAC6 (HDAC Fluorimetric Drug Discovery Kit). The format is biochemical. The following applies: for HDAC6 Selectivity (fold): HDAC6 versus HDAC1; for IC50: human recombinant HDAC6, same protocol as the HDAC1 test. Put shortly:
(§1)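 Both HDAC1 and HDAC6 (human recombinant, 0.3 μg) tested identically: 10 μM fluorogenic Fluor de Lys-SIRT1 substrate, reaction 60 min at 30° C, developer added for 30 min. IC50 calculated from Ex 360/Em 460 signal over 5-fold serial dilutions.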

For experiment [2], the target named is T2, human recombinant HDAC1 (Homo sapiens, UniProt Q13547).
T2 construct: purchased Enzo Life Sciences, Inc. BML-SE456
In words: In vitro HDAC enzyme activity inhibition assay, HDAC1 (HDAC Fluorimetric Drug Discovery Kit). Format: biochemical. Particulars: human recombinant HDAC1, Fluor de Lys-SIRT1 substrate 10 μM, 30° C. for 60 minutes. Put shortly:
as §1

T2 sequence (Q13547 whole entry): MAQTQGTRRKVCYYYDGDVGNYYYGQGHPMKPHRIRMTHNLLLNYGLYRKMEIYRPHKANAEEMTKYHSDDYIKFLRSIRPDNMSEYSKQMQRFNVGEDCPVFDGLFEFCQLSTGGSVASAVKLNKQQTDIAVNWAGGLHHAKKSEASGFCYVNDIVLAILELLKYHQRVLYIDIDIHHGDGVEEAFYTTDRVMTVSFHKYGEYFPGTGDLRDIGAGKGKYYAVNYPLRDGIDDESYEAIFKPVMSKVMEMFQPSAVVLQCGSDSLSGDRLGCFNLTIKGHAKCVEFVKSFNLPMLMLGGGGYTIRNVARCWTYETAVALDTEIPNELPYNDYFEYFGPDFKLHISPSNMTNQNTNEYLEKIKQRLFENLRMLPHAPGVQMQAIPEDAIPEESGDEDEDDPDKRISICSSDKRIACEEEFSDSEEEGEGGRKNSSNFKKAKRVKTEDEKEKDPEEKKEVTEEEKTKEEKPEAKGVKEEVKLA

One may read the IC50 as the midpoint of a concentration-inhibition curve. As to `CN(C)C(=O)N1CCC(C(=O)N(Cc2cn3ccc(-c4nnc(C(F)F)o4)cc3n2)c2cccc(F)c2)CC1` [Compound 4155, N4-((7-(5-(difluoromethyl)-1,3,4-oxadiazol-2-yl)imidazo[1,2-a]pyridin-2-yl)methyl)-N4-(3-fluorophenyl)-N1,N1-dimethylpiperidine-1,4-dicarboxamide], in experiment [1], the “HDAC6 Selectivity (fold)” value is on record as 142 fold and the IC50 amounted to 0.352 µM. Also, in experiment [2], the IC50 is > 50 µM.

In the case of `Fc1ccc(OCc2cn3ccc(-c4nnc(C(F)F)o4)cc3n2)cc1F` [Compound 3723, 2-(difluoromethyl)-5-(2-((3,4-difluorophenoxy)methyl)imidazo[1,2-a]pyridin-7-yl)-1,3,4-oxadiazole], in experiment [1], the “HDAC6 Selectivity (fold)” value worked out at 174 fold and the IC50 came to 0.24 µM. In experiment [2], the IC50 was > 50 µM.

With `CC(C)c1cccc(Cc2cn3ccc(-c4nnc(C(F)F)o4)cc3n2)c1` [Compound 3594, 2-(difluoromethyl)-5-(2-(3-isopropylbenzyl)imidazo[1,2-a]pyridin-7-yl)-1,3,4-oxadiazole], the “HDAC6 Selectivity (fold)” value in experiment [1] stood at 89 fold. The figures for the IC50 in experiment [1] and in experiment [2] were 0.564 µM and > 50 µM, respectively.

Take `COC(=O)N1CCC(C(=O)N(Cc2cn3ccc(-c4nnc(C(F)F)o4)cc3n2)c2cccc(F)c2)CC1` [Compound 4154, methyl 4-(((7-(5-(difluoromethyl)-1,3,4-oxadiazol-2-yl)imidazo[1,2-a]pyridin-2-yl)methyl)(3-fluorophenyl)carbamoyl)piperidine-1-carboxylate]: in experiment [1], the “HDAC6 Selectivity (fold)” value is 218 fold. Moreover, the IC50 in experiment [1] was 0.229 µM; in experiment [2] it was > 50 µM.

Turning to `O=C(C1CCN(C2COC2)CC1)N(Cc1cn2ccc(-c3nnc(C(F)F)o3)cc2n1)c1cccc(F)c1` [Compound 4142, N-((7-(5-(difluoromethyl)-1,3,4-oxadiazol-2-yl)imidazo[1,2-a]pyridin-2-yl)methyl)-N-(3-fluorophenyl)-1-(oxetan-3-yl)piperidine-4-carboxamide], in experiment [1], the “HDAC6 Selectivity (fold)” value is listed as 234 fold and the IC50 worked out at 0.214 µM. Besides, the IC50 in experiment [2] is > 50 µM.

For `O=C(C1CCN(c2ccccn2)CC1)N(Cc1cn2ccc(-c3nnc(C(F)F)o3)cc2n1)c1ccccc1` [Compound 4131, N-((7-(5-(difluoromethyl)-1,3,4-oxadiazol-2-yl)imidazo[1,2-a]pyridin-2-yl)methyl)-N-phenyl-1-(pyridin-2-yl)piperidine-4-carboxamide], in experiment [1], the “HDAC6 Selectivity (fold)” value stood at 91 fold and the concentration for half-maximal inhibition (IC50) worked out at 0.547 µM. Also, the IC50 in experiment [2] is > 50 µM.

As to `O=C(C1CCN(C2CCOCC2)CC1)N(Cc1cn2ccc(-c3nnc(C(F)F)o3)cc2n1)c1cccc(F)c1` [Compound 4144, N-((7-(5-(difluoromethyl)-1,3,4-oxadiazol-2-yl)imidazo[1,2-a]pyridin-2-yl)methyl)-N-(3-fluorophenyl)-1-(tetrahydro-2H-pyran-4-yl)piperidine-4-carboxamide], in experiment [1], the “HDAC6 Selectivity (fold)” value is given as 206 fold. Moreover, the values for the IC50 in experiment [1] and in experiment [2] were 0.243 µM and > 50 µM, respectively.

In the case of `O=C(C1CCN(C2CCC2)CC1)N(Cc1cn2ccc(-c3nnc(C(F)F)o3)cc2n1)c1ccccc1` [Compound 4118, 1-cyclobutyl-N-((7-(5-(difluoromethyl)-1,3,4-oxadiazol-2-yl)imidazo[1,2-a]pyridin-2-yl)methyl)-N-phenylpiperidine-4-carboxamide], in experiment [1], the “HDAC6 Selectivity (fold)” value amounted to 151 fold and the IC50 came to 0.332 µM. Besides, in experiment [2], the IC50 is > 50 µM.

`O=C(C1CCN(C2CCCCC2)CC1)N(Cc1cn2ccc(-c3nnc(C(F)F)o3)cc2n1)c1ccccc1` [Compound 4119, 1-cyclohexyl-N-((7-(5-(difluoromethyl)-1,3,4-oxadiazol-2-yl)imidazo[1,2-a]pyridin-2-yl)methyl)-N-phenylpiperidine-4-carboxamide]: in experiment [1], the “HDAC6 Selectivity (fold)” value was found to be 124 fold and the IC50 was 0.402 µM. Further, the IC50 in experiment [2] was > 50 µM.

For the compound `Fc1ccc(Cc2cn3ccc(-c4nnc(C(F)F)o4)cc3n2)cc1` [Compound 3586, 2-(difluoromethyl)-5-(2-(4-fluorobenzyl)imidazo[1,2-a]pyridin-7-yl)-1,3,4-oxadiazole], in experiment [1], the “HDAC6 Selectivity (fold)” value is 151 fold and the IC50 was 0.33 µM. Further, in experiment [2], the 50% inhibitory concentration (IC50) is > 50 µM.

Regarding `Fc1ccc(NCc2cn3ccc(-c4nnc(C(F)F)o4)cc3n2)cc1F` [Compound 3671, N-((7-(5-(difluoromethyl)-1,3,4-oxadiazol-2-yl)imidazo[1,2-a]pyridin-2-yl)methyl)-3,4-difluoroaniline], in experiment [1], the “HDAC6 Selectivity (fold)” value came to 318 fold. The figures for the IC50 in experiment [1] and in experiment [2] were 0.157 µM and > 50 µM, respectively.

In the case of `O=C(C1CN(C2CCC2)C1)N(Cc1cn2ccc(-c3nnc(C(F)F)o3)cc2n1)c1cccc(F)c1` [Compound 4192, 1-cyclobutyl-N-((7-(5-(difluoromethyl)-1,3,4-oxadiazol-2-yl)imidazo[1,2-a]pyridin-2-yl)methyl)-N-(3-fluorophenyl) azetidine-3-carboxamide], the “HDAC6 Selectivity (fold)” value in experiment [1] was 452 fold. For the same compound, the figures for the IC50 in experiment [1] and in experiment [2] were 0.111 µM and > 50 µM, respectively.

For the compound `O=C(C1CCC1)N1CCC(C(=O)N(Cc2cn3ccc(-c4nnc(C(F)F)o4)cc3n2)c2ccccc2)CC1` [Compound 4125, 1-(cyclobutanecarbonyl)-N-((7-(5-(difluoromethyl)-1,3,4-oxadiazol-2-yl)imidazo[1,2-a]pyridine-2-yl)methyl)-N-phenylpiperidine-4-carboxamide], in experiment [1], the “HDAC6 Selectivity (fold)” value came out at 152 fold and the IC50 turned out to be 0.329 µM. In addition, the IC50 in experiment [2] was > 50 µM.

Turning to `CS(=O)(=O)N1CC(C(=O)N(Cc2cn3ccc(-c4nnc(C(F)F)o4)cc3n2)c2cccc(F)c2)C1` [Compound 4203, N-((7-(5-(difluoromethyl)-1,3,4-oxadiazol-2-yl)imidazo[1,2-a]pyridin-2-yl)methyl)-N-(3-fluorophenyl)-1-(methylsulfonyl) azetidine-3-carboxamide], in experiment [1], the “HDAC6 Selectivity (fold)” value is 295 fold and the IC50 stood at 0.17 µM. In experiment [2], the IC50 is > 50 µM.

For the compound `O=C(C1CCC1)N1CCN(C(=O)N(Cc2cn3ccc(-c4nnc(C(F)F)o4)cc3n2)c2ccccc2)CC1` [Compound 4043, 4-(cyclobutanecarbonyl)-N-((7-(5-(difluoromethyl)-1,3,4-oxadiazol-2-yl)imidazo[1,2-a]pyridine-2-yl)methyl)-N-phenylpiperazine-1-carboxamide], in experiment [1], the “HDAC6 Selectivity (fold)” value is listed as 302 fold and the concentration for half-maximal inhibition (IC50) was found to be 0.166 µM. Further, in experiment [2], the IC50 is > 50 µM.

`O=C(C1CN(C2COC2)C1)N(Cc1cn2ccc(-c3nnc(C(F)F)o3)cc2n1)c1cccc(F)c1` [Compound 4193, N-((7-(5-(difluoromethyl)-1,3,4-oxadiazol-2-yl)imidazo[1,2-a]pyridin-2-yl)methyl)-N-(3-fluorophenyl)-1-(oxetan-3-yl) azetidine-3-carboxamide]: the “HDAC6 Selectivity (fold)” value in experiment [1] is 361 fold. In addition, the figures for the IC50 in experiment [1] and in experiment [2] were 0.139 µM and > 50 µM, respectively.

As for `O=C(C1COC1)N1CCN(C(=O)N(Cc2cn3ccc(-c4nnc(C(F)F)o4)cc3n2)c2cccc(F)c2)CC1` [Compound 4103, N-((7-(5-(difluoromethyl)-1,3,4-oxadiazol-2-yl)imidazo[1,2-a]pyridin-2-yl)methyl)-N-(3-fluorophenyl)-4-(oxetan-3-carbonyl)piperazine-1-carboxamide], in experiment [1], the “HDAC6 Selectivity (fold)” value is recorded as 249 fold and the IC50 amounted to 0.201 µM. Moreover, the IC50 in experiment [2] is > 50 µM.

Take `O=C(C1CN(C(=O)C(F)(F)F)C1)N(Cc1cn2ccc(-c3nnc(C(F)F)o3)cc2n1)c1ccccc1` [Compound 4172, N-((7-(5-(difluoromethyl)-1,3,4-oxadiazol-2-yl)imidazo[1,2-a]pyridin-2-yl)methyl)-N-phenyl-1-(2,2,2-trifluoroacetyl) azetidine-3-carboxamide]: in experiment [1], the “HDAC6 Selectivity (fold)” value came to 184 fold and the IC50 is 0.272 µM. Further, in experiment [2], the IC50 is > 50 µM.
